In patent US9815826B2, “Crystal of azole benzene derivative” (TEIJIN PHARMA LIMITED, priority 2014, dated 2017):

Key:
[1] = test system: level of uric acid in the plasma; assay: Hypouricemic effect (oxonic acid-induced hyperuricemic beagle dogs); format: in vivo, beagle dog; conditions: oral, 10 mg/kg, 8 hours after administration
Experimental: The hypouricemic effect of 2-[4-(2,2-dimethylpropoxy)-3-(1H-1,2,3,4-tetrazol-1-yl)phenyl]-4-methyl-1,3-thiazole-5-carboxylic acid in oxonic acid-induced hyperuricmic beagle dog was confirmed. A test compound suspended in a 0.5% methylcellulose solution was administered to beagle dog (Kitayama labes) by oral gavage administration. Potassium oxonate (50 mg/kg) was subcutaneously administrated before and 4 hours after compound administration. After the blood was collected from the cephalic vein at 8 hours after administration, the plasma was separated. The level of uric acid in the plasma sample was measured by LC-MS/MS method and the percentage of hypouricemic effect was determined by the following expression: Percentage of hypouricemic effect (%)=(Level of uric acid of the control animal−Level of uric acid of the test compound-administered animal)×100/Level of uric acid of the control animal.

[2] = molecular target: T1, oxidase-type xanthine oxidoreductase (from buttermilk) (Bos taurus, UniProt P80457); assay: Measurement of xanthine oxidase inhibitory activity; format: biochemical; conditions: xanthine substrate, absorbance 290 nm
T1 construct: purchased Calbiochem Novabiochem Corp; host or cells: natural source: buttermilk
T1 sequence (P80457 whole entry): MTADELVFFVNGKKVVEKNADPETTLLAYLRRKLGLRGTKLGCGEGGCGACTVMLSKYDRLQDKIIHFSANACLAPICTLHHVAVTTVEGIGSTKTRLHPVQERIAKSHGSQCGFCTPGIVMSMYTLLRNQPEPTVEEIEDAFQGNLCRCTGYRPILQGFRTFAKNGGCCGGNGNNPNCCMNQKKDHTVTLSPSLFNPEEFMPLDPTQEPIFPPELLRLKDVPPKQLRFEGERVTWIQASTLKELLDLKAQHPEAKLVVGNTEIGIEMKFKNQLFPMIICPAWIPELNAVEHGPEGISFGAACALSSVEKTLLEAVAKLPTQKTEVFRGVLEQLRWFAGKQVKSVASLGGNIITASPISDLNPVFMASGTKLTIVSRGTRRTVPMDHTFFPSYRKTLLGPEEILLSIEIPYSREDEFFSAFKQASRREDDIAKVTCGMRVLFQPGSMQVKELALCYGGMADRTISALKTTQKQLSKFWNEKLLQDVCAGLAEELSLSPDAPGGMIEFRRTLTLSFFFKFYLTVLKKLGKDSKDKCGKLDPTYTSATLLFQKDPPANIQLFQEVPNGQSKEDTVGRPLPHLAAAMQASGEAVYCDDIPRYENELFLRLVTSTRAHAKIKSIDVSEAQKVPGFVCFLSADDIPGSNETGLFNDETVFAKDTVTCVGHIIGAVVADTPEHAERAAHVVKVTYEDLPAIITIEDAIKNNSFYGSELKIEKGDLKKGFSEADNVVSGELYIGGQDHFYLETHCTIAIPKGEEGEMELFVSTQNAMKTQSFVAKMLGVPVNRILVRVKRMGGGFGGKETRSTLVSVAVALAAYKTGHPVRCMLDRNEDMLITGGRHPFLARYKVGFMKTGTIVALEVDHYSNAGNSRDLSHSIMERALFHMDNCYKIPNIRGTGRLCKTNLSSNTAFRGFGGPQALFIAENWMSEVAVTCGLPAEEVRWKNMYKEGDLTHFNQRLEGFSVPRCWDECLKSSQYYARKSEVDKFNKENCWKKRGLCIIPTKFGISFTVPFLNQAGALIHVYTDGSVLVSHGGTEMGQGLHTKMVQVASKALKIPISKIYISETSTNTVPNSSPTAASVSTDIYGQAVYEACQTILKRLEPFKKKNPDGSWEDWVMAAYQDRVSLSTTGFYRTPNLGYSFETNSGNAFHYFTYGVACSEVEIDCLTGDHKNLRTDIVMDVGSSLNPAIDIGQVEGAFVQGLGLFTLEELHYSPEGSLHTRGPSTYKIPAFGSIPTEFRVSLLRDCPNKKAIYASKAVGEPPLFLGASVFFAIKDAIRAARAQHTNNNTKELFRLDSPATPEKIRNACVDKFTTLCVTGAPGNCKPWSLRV
Experimental: After dissolving 2-[4-(2,2-dimethylpropoxy)-3-(1H-1,2,3,4-tetrazol-1-yl)phenyl]-4-methyl-1,3-thiazole-5-carboxylic acid in DMSO (produced by Sigma Corporation) so that the concentration is 20 mM, the solution was used by adjusting the concentration to a desired value for the purpose during use.
The evaluation of the xanthine oxidase inhibitory activity of 2-[4-(2,2-dimethylpropoxy)-3-(1H-1,2,3,4-tetrazol-1-yl)phenyl]-4-methyl-1,3-thiazole-5-carboxylic acid was conducted by the method described in the refference (Method Enzymatic Analysis, 1, 521-522, 1974) with partial modification. This evaluation was carried out by measuring oxidase-type xanthine oxidoreductase acrivity. […] After mixing the plate, absorbance at 290 nm was measured by a microplate reader SPECTRA MAX Plus 384 (manufactured by Molecular Devices, LLC). […] Immediately after mixing, the change of absorbance at 290 nm was measured for 5 minutes. The enzyme activity of DMSO solution without test compound was used as 100% control, and the inhibitory rate of the test compound was calculated. Fifty percent inhibitory concentration of the test compound on the oxidase-type xanthine oxidoreductase activity was calculated by fitting to the dose-response curve.

[3] = test system: level of uric acid in the blood; assay: Hypouricemic effect (normal rats), 2 hours after administration; format: in vivo, Sprague-Dawley male rats; conditions: oral
Experimental: The hypouricemic effect was confirmed for 2-[4-(2,2-dimethylpropoxy)-3-(1H-1,2,3,4-tetrazol-1-yl)phenyl]-4-methyl-1,3-thiazole-5-carboxylic acid. A test compound suspended in a 0.5% methylcellulose solution was forcibly administered to 8 to 9 week-old Sprague-Dawley male rats (Japan Charles River Co.) by oral gavage administration using a feeding needle. After the blood was collected from the tail vein at 2 hours after administration, the plasma was separated. The level of uric acid in the blood sample was measured by uricase method using an absorption spectrometer as well as a uric acid determination kit (L type Wako UA F: Wako Pure Chemical Industries, Ltd.). The percentage of hypouricemic effect was determined by the following expression: Percentage of hypouricemic effect (%)=(Level of uric acid of the control animal−Level of uric acid of the test compound-administered animal)×100/Level of uric acid of the control animal.

[4] = molecular target: T2, oxidase-type and dehydrogenase-type xanthine oxidoreductase (XOR activity) (Rattus norvegicus, UniProt P22985); assay: Prolonged inhibitory effect on tissue XOR activity (pterin-based assay with methylene blue after oral dosing); format: in vivo, Sprague-Dawley male rats; conditions: for XOR activity inhibition compared to the control animal: 27 hours after drug administration; for XOR inhibitory activity, % of inhibition (vs. vehicle): 24 hours after administration
T2 construct: frozen tissues were homogenized with potassium phosphate buffer; from tissue; host or cells: rat liver, kidney, vessel homogenate supernatants and plasma (ex vivo after oral dosing)
T2 sequence (P22985 whole entry): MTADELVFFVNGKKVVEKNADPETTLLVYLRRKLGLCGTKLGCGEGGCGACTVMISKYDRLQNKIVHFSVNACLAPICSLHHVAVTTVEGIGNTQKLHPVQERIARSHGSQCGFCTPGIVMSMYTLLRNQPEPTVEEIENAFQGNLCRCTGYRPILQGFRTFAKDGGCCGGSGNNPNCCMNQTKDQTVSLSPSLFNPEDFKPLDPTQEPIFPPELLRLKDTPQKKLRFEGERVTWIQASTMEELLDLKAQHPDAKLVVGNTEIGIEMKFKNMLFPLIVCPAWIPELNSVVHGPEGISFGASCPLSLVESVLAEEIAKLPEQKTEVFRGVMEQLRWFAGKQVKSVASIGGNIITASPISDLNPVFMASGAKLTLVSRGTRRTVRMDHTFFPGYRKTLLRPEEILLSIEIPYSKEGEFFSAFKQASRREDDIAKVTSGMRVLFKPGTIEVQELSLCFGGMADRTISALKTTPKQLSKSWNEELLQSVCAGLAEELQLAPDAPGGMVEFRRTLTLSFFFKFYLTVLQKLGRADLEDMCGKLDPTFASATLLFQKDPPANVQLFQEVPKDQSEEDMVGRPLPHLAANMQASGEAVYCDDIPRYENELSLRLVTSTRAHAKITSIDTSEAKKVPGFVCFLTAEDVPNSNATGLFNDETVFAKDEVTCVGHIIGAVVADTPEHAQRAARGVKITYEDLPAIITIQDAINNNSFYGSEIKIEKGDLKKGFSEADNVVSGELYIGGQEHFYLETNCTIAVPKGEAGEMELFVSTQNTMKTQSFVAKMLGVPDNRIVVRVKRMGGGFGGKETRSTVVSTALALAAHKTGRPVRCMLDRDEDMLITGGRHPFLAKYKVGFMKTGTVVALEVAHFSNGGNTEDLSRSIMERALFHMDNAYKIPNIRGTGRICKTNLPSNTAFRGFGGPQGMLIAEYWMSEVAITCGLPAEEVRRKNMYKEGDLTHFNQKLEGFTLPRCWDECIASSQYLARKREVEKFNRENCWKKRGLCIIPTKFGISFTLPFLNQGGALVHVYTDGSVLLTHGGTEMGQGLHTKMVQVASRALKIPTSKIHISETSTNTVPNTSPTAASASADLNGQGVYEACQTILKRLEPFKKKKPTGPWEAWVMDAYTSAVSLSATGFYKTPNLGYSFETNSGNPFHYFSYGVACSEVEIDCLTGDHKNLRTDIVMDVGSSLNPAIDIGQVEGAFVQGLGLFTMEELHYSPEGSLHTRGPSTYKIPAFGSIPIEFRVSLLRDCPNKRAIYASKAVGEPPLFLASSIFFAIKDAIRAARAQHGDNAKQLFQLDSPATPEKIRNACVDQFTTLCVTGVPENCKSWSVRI
Description: (§1) For “xanthine oxidase” in the present invention, as far as this example, oxidative reaction catalyzing activities which are brought by oxidase-type xanthine oxidoreductase solely and by both oxidase-type and dehydrogenase-type xanthine oxidoreductase are distinguished. The former is “XO activity” and the latter is “XOR activity”. In “tissue XO activity”, “plasma XO activity”, “tissue XOR activity inhibition”, “tissue XOR activity inhibition” and the like, “XO activity” and “XOR activity” have the same meanings as defined above. The tissue includes liver, kidney and vessel. In addition, percentage of XO activity inhibition and that of […] in same sample are thought to be similar, according to the results below.
(§2) The inhibitory effect of tissue XO activity, tissue XOR activity and plasma XO activity was confirmed for 2-[4-(2,2-dimethylpropoxy)-3-(1H-1,2,3,4-tetrazol-1-yl)phenyl]-4-methyl-1,3-thiazole-5-carboxylic acid. A test compound suspended in a 0.5% methylcellulose solution was forcedly administered to 7 to 9 week-old Sprague-Dawley male rats (Japan Charles River Co.) by oral gavage administration using a feeding needle. The blood was collected from the abdominal vein and tissue was collected at 24 or 27 hours after administration. Plasma sample was prepared by centrifugation.
(§3) The tissue XO activity, the tissue XOR activity and the plasma XO activity were measured by the pterin-based assay which utilizes the reaction that pterin is oxidized by each type of xanthine oxidoreductase to produce fluorescent isoxanthopterin. In brief, frozen tissues were homogenized with potassium phosphate buffer, pH 7.4, containing 1 mM ethylenediaminetetraacetic acid (EDTA) and protease inhibitors to prepare tissue concentration as follow (liver: 25 mg/mL, kidney: 25 mg/mL, vessel: 30 mg/mL). Then the homogenates were centrifuged 12,000 rpm for 15 min at 4° C. When measured XO activity, the supernatant of tissue and plasma were respectively co-incubated with 50 μM pterin solution at 37° C. When measured XOR activity, the supernatant of tissue homogenate was co-incubated with 50 μM pterin and 50 μM methylene blue solution at 37° C. As a control, oxidase-type xanthine oxidoreductase (from buttermilk, manufactured by Calbiochem Novabiochem Corp.) was also incubated with pterin solution in the same manner. XO activity and XOR activity of the samples were determined from fluorescence intensity which normalized by the intensity value of control and protein concentration.
(§4) The percentage of XO activity inhibition and XOR activity inhibition were determined by the following expression: Percentage of XO or XOR activity inhibition (%)=(XO or XOR activity of the control animal−XO or XOR activity of the test compound-administered animal)×100/XO or XOR activity of the control animal.

[5] = molecular target: T3, oxidase-type xanthine oxidoreductase (XO activity) (Rattus norvegicus, UniProt P22985); assay: Prolonged inhibitory effect on tissue and plasma XO activity (pterin-based assay after oral dosing); format: in vivo, Sprague-Dawley male rats; conditions: about 27 hours after administration
T3 construct: frozen tissues were homogenized with potassium phosphate buffer; from tissue; host or cells: rat liver, kidney, vessel homogenate supernatants and plasma (ex vivo after oral dosing)
T3 sequence (P22985 whole entry): as above
Description: as §1, §2, §3, §4

[6] = test system: level of uric acid in the blood; assay: Prolonged hypouricemic effect (normal rats), 24 hours after administration; format: in vivo, Sprague-Dawley male rats; conditions: oral
Experimental: 2-[4-(2,2-dimethylpropoxy)-3-(1H-1,2,3,4-tetrazol-1-yl)phenyl]-4-methyl-1,3-thiazole-5-carboxylic acid was administered to Sprague-Dawley male rats in the same manner as in Reference Example 4. After the blood was collected from the tail vein 24 hours after administration, the plasma was separated. The level of uric acid in the blood was measured by an uricase method using an absorption spectrometer and a uric acid determination kit (L type Wako UA F: Wako Pure Chemical Industries, Ltd.). The percentage of hypouricemic effect was determined by the following expression: Percentage of hypouricemic effect (%)=(Level of uric acid of the control animal−Level of uric acid of the test compound-administered animal)×100/Level of uric acid of the control animal.

IC50 [2]: 1 to 5 nM | XOR activity inhibition compared to the control animal ([4]; rat kidney, 1 mg/kg oral): ≥ 60% | XOR inhibitory activity, % of inhibition (vs. vehicle) ([4]; rat liver, 1 mg/kg oral, 1 mg/kg): ≧80% | XOR inhibitory activity, % of inhibition (vs. vehicle) ([4]; rat liver, 1 mg/kg oral, listed as present compound, 1 mg/kg): ≥ 80% | XOR activity inhibition compared to the control animal ([4]; rat liver, 1 mg/kg oral): ≥ 80% | XOR inhibitory activity, % of inhibition (vs. vehicle) ([4]; rat vessel, 1 mg/kg oral, 1 mg/kg): ≧30% | XOR inhibitory activity, % of inhibition (vs. vehicle) ([4]; rat vessel, 1 mg/kg oral, listed as present compound, 1 mg/kg): ≥ 30% | XOR inhibitory activity, % of inhibition (vs. vehicle) ([4]; rat vessel, 10 mg/kg oral, 10 mg/kg): ≧50% | XOR inhibitory activity, % of inhibition (vs. vehicle) ([4]; rat vessel, 10 mg/kg oral, listed as present compound, 10 mg/kg): ≥ 50% | XO inhibitory activity, % of inhibition (vs. vehicle) ([5]; rat kidney, 1 mg/kg oral): ≧60% | XO inhibitory activity, % of inhibition (vs. vehicle) ([5]; rat kidney, 10 mg/kg oral, 10 mg/kg): ≧70% | XO inhibitory activity, % of inhibition (vs. vehicle) ([5]; rat kidney, 10 mg/kg oral, listed as present compound, 10 mg/kg): ≥ 70% | XO inhibitory activity, % of inhibition (vs. vehicle) ([5]; rat liver, 1 mg/kg oral): ≧80% | XO inhibitory activity, % of inhibition (vs. vehicle) ([5]; rat plasma, 1 mg/kg oral, 1 mg/kg): ≧25% | XO inhibitory activity, % of inhibition (vs. vehicle) ([5]; rat plasma, 1 mg/kg oral, listed as present compound, 1 mg/kg): ≥ 25% | XO inhibitory activity, % of inhibition (vs. vehicle) ([5]; rat plasma, 10 mg/kg oral, 10 mg/kg): ≧40% | XO inhibitory activity, % of inhibition (vs. vehicle) ([5]; rat plasma, 10 mg/kg oral, listed as present compound, 10 mg/kg): ≥ 40%
SMILES: Cc1nc(-c2ccc(OCC(C)(C)C)c(-n3cnnn3)c2)sc1C(=O)O [2-[4-(2,2-dimethylpropoxy)-3-(1H-1,2,3,4-tetrazol-1-yl)phenyl]-4-methyl-1,3-thiazole-5-carboxylic acid]
Percentage of hypouricemic effect [1]: ≥ 80% | Percentage of hypouricemic effect ([3]; 1 mg/kg): ≥ 50% | Percentage of hypouricemic effect ([3]; 10 mg/kg): ≥ 50% | Percentage of hypouricemic effect ([6]; 3 mg/kg): ≥ 40% | Percentage of hypouricemic effect ([6]; 10 mg/kg): ≥ 50%
